Results published in the supplement of paper PMC11579375.

Experiments:
Experiment in all cases: area under the viability dose-response curve (AUC) (AUC (arbitrary units, max 500 = no viability loss)); higher = less sensitive (higher viability)
Conditions in all cases: exposure time: 120 h; concentration range: 0.1 nM - 10 µM, 6 doses
10F2 = tested on: 10F2 (fetal-II hepatoblastoma organoid with high liver markers)
Protocol: (§1)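 Patient-derived hepatoblastoma tumor organoids (about 50 organoids per well, 384-well plates, medium with 5% BME) were treated with the PMC pediatric cancer drug library. Each drug was tested in duplicate at 6 concentrations (0.1 nM to 10 µM, 10-fold steps).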

135F2 = tested on: 135F2 (fetal-II hepatoblastoma organoid with high liver markers)
Protocol: as §1

13E = tested on: 13E (embryonal-type hepatoblastoma organoid)
Protocol: as §1

13F2 = tested on: 13F2 (fetal-II hepatoblastoma organoid with high liver markers)
Protocol: as §1

17E = tested on: 17E (embryonal-type hepatoblastoma organoid)
Protocol: as §1

17F1 = tested on: 17F1 (fetal-I hepatoblastoma organoid with intermediate liver markers)
Protocol: as §1

27F1 = tested on: 27F1 (fetal-I hepatoblastoma organoid with intermediate liver markers)
Protocol: as §1

3E = tested on: 3E (embryonal-type hepatoblastoma organoid)
Protocol: as §1

8F1 = tested on: 8F1 (fetal-I hepatoblastoma organoid with intermediate liver markers)
Protocol: as §1

96F1 = tested on: 96F1 (fetal-I hepatoblastoma organoid with intermediate liver markers)
Protocol: as §1

22E = tested on: 22E (embryonal-type hepatoblastoma organoid)
Protocol: as §1

| Compound | area under the viability dose-response curve (10F2) | area under the viability dose-response curve (135F2) | area under the viability dose-response curve (13E) | area under the viability dose-response curve (13F2) | area under the viability dose-response curve (17E) | area under the viability dose-response curve (17F1) | area under the viability dose-response curve (27F1) | area under the viability dose-response curve (3E) | area under the viability dose-response curve (8F1) | area under the viability dose-response curve (96F1) | area under the viability dose-response curve (22E) |
| --- | --- | --- | --- | --- | --- | --- | --- | --- | --- | --- | --- |
| O=C(/C=C\n1cnc(-c2cc(C(F)(F)F)cc(C(F)(F)F)c2)n1)NNc1cnccn1 [Selinexor] | 360 | 378 | 345 | 319 | 387 | 443 | 415 | 349 | 489 | 395 | – |
| O=P1(N(CCCl)CCCl)NC(OO)CCO1 (centres undefined) [4-Hydroperoxy cyclophosphamide (Cyclophosphamide)] | 465 | – | > 500 | > 500 | > 500 | > 500 | – | – | – | – | – |
| CC(C)(CN1C(=O)C(Cl)=C(Cl)C1=O)CN1C(=O)C(Cl)=C(Cl)C1=O | – | 497 | – | – | – | – | > 500 | > 500 | > 500 | > 500 | 427 |
| COCC1(CO)C(=O)C2CCN1CC2 (centres undefined) [APR-246] | > 500 | 495 | > 500 | 487 | 494 | 497 | 462 | > 500 | 480 | 499 | – |
| O=P(O)(NCCCl)NCCCl [Palifosfamide (Ifosfamide)] | 474 | – | 493 | 498 | 473 | 477 | – | – | – | – | – |
| C/C=C1\NC(=O)[C@H]2CSSCC/C=C/[C@H](CC(=O)N[C@H](C(C)C)C(=O)N2)OC(=O)[C@H](C(C)C)NC1=O [Romidepsin] | 141 | 137 | 123 | 143 | 104 | 158 | 165 | 87.9 | 145 | 54.5 | – |
| O=C(Nc1ccc(Cl)c(C(F)(F)F)c1)NC1CCC(Oc2ccc(C(F)(F)F)cn2)CC1 (centres undefined) [UC2288] | – | 468 | – | – | – | – | 490 | 371 | 486 | 484 | 477 |
| CC[C@H](C)n1cc(C)c2c(C(=O)NCc3c(C)cc(C)[nH]c3=O)cc(-c3ccc(N4CCNCC4)nc3)cc21 [GSK-126] | – | > 500 | – | – | – | – | 499 | 458 | > 500 | > 500 | > 500 |
| COCc1c(-c2cc3cc(C)cc(OC)c3s2)c2c(N)ncnn2c1CN1CCNC(=O)C1 [Rogaratinib] | – | 473 | – | – | – | – | 475 | 361 | 496 | 485 | 440 |
| CO[C@H]1C[C@@H]2CC[C@@H](C)[C@@](O)(O2)C(=O)C(=O)N2CCCC[C@H]2C(=O)O[C@H]([C@H](C)C[C@@H]2CC[C@@H](O)[C@H](OC)C2)CC(=O)[C@H](C)/C=C(\C)[C@@H](O)[C@@H](OC)C(=O)[C@H](C)C[C@H](C)/C=C/C=C/C=C/1C [Sirolimus] | 391 | 464 | 389 | 319 | 257 | > 500 | > 500 | 249 | 476 | > 500 | – |
| COc1c(OCCCN2CCOCC2)ccc2c1N=C(NC(=O)c1cnc(N)nc1)N1CCN=C21 [Copanlisib] | – | 315 | – | – | – | – | 485 | > 500 | 390 | 352 | 300 |
| Cn1cc(-n2cnc3c(NCc4nc5cc(Cl)c(Cl)cc5[nH]4)nc(N4CCOCC4)nc32)cn1 [SR-4835] | – | 277 | – | – | – | – | 264 | 196 | 292 | 279 | 327 |
| CCN(CC)CCNC(=O)c1c(C)[nH]c(/C=C2\C(=O)Nc3ccc(F)cc32)c1C [Sunitinib] | 385 | 437 | 463 | 419 | 424 | > 500 | 498 | 471 | 461 | 464 | – |
| O=C(O)C(=O)O.[NH-][C@@H]1CCCC[C@H]1[NH-].[Pt+2] [Oxaliplatin] | 457 | – | – | 488 | > 500 | > 500 | 481 | 490 | 486 | – | > 500 |
| CNC(=O)c1cc(Oc2ccc(NC(=O)Nc3ccc(Cl)c(C(F)(F)F)c3)c(F)c2)ccn1 [Regorafenib] | 389 | 404 | 418 | 430 | 456 | 428 | 447 | 387 | 290 | 452 | – |
| CC(C)n1c(=O)n(C)c2cnc3cc(F)c(-c4ccc(OCCCN5CCCCC5)nc4)cc3c21 [AZD1390] | – | 440 | – | – | – | – | > 500 | 491 | 486 | 471 | > 500 |
| O=NN(CCCl)C(=O)NC1CCCCC1 [Lomustine] | – | 487 | – | – | – | – | > 500 | 446 | > 500 | 470 | 455 |
| CN(C)CCNC(=O)c1cccn2c(=O)c3cc4ccccc4cc3nc12 [BMH-21] | – | 416 | – | – | – | – | 434 | 430 | 408 | 445 | 466 |
| N[C@@H]1CCCN(c2c(/C=C3\SC(=O)NC3=O)cccc2-c2ccccc2)C1 [AZD1208] | – | 487 | – | – | – | – | 471 | 430 | > 500 | > 500 | – |
| COc1cc2c(cc1O)CCN[C@]21CS[C@@H]2c3c(OC(C)=O)c(C)c4c(c3[C@H](COC1=O)N1[C@@H]2[C@H]2c3c(cc(C)c(OC)c3O)C[C@@H]([C@@H]1O)N2C)OCO4 [Trabectedin] | – | 57.9 | – | – | – | – | 117 | 24.1 | 144 | 84.9 | 133 |
| CNC(=O)c1ccccc1Sc1ccc2c(/C=C/c3ccccn3)n[nH]c2c1 [Axitinib] | 411 | 463 | 427 | 457 | 438 | 499 | 478 | 421 | 495 | 480 | – |
| O=C(NC[C@H](O)CO)c1ccncc1Nc1ccc(I)cc1F [Pimasertib] | – | 393 | – | – | – | – | 457 | 456 | > 500 | 467 | 445 |

| Compound | area under the viability dose-response curve (10F2) | area under the viability dose-response curve (135F2) | area under the viability dose-response curve (13E) | area under the viability dose-response curve (13F2) | area under the viability dose-response curve (17E) | area under the viability dose-response curve (17F1) | area under the viability dose-response curve (27F1) | area under the viability dose-response curve (3E) | area under the viability dose-response curve (8F1) | area under the viability dose-response curve (96F1) | area under the viability dose-response curve (22E) |
| --- | --- | --- | --- | --- | --- | --- | --- | --- | --- | --- | --- |
| CC(=O)[C@]1(O)Cc2c(O)c3c(c(O)c2[C@@H](O[C@H]2C[C@H](N)[C@H](O)[C@H](C)O2)C1)C(=O)c1ccccc1C3=O [Idarubicin] | – | 143 | – | – | – | – | 273 | 234 | 373 | 215 | 313 |
| COc1cc2nc(C)nc(N[C@H](C)c3cc(N)cc(C(F)(F)F)c3)c2cc1O[C@H]1CCOC1 [BI-3406] | – | 472 | – | – | – | – | 481 | > 500 | > 500 | 413 | – |
| O=C(O)C1(C(=O)O)CCC1.[NH2-].[NH2-].[Pt+2] [Carboplatin] | 470 | 494 | – | 462 | 491 | 494 | 487 | 478 | 433 | 476 | > 500 |
| Cn1cnc2c(F)c(Nc3ccc(Br)cc3Cl)c(C(=O)NOCCO)cc21 [Selumetinib] | 369 | 430 | 499 | 412 | > 500 | > 500 | 464 | > 500 | > 500 | 491 | – |
| Cc1c(Cl)ccc2c1N=C/C2=C\c1[nH]c(=O)n(C(C(=O)NC(CO)CO)c2ccc(F)c(F)c2)c1O (centres undefined) [RO-5963] | – | 459 | – | – | – | – | – | – | – | 446 | 449 |
| CN(C)C(=O)c1cc2cnc(Nc3ccc(N4CCNCC4)cn3)nc2n1C1CCCC1 [Ribociclib] | 442 | 461 | 446 | 422 | 406 | 473 | 442 | 404 | 470 | 472 | – |
| CC1(N)CCN(c2cnc(-c3cccc(Cl)c3Cl)c(N)n2)CC1 [SHP099] | 430 | – | 500 | 479 | > 500 | 483 | 464 | 473 | > 500 | – | – |
| NC(=O)/C(=C/n1cnc(-c2cc(C(F)(F)F)cc(C(F)(F)F)c2)n1)c1cncnc1 [Eltanexor] | – | 371 | – | – | – | – | 429 | 345 | 469 | 406 | – |
| CC(C)(O)c1cc(Nc2cc(Oc3cn(C4CC4)nc3C3CCOCC3)ccn2)ccn1 | – | > 500 | – | – | – | – | > 500 | > 500 | 499 | > 500 | – |
| COc1cc2/c(=N/c3ccc(Br)cc3F)nc[nH]c2cc1OCC1CCN(C)CC1 [Vandetanib] | 340 | 428 | 459 | 373 | 429 | 449 | 446 | 474 | 487 | 410 | – |
| Cc1sc2c(c1C)C(c1ccc(Cl)cc1)=N[C@@H](CC(=O)NCCCN1CCN(C)CC1)c1nnc(C)n1-2 [(S)-JQ-35] | – | 388 | – | – | – | – | 447 | 309 | 345 | 496 | 410 |
| N#Cc1c(Oc2ccc(F)c(NC(=O)Cc3cccc(C(F)(F)F)c3)c2)ccc2nc(NC(=O)C3CC3)sc12 [TAK632] | – | 393 | – | – | – | – | 467 | 472 | 478 | 417 | 455 |
| CC1(C)CCC(CN2CCN(c3ccc(C(=O)NS(=O)(=O)c4ccc(NCC5CCOCC5)c([N+](=O)[O-])c4)c(Oc4cnc5[nH]ccc5c4)c3)CC2)=C(c2ccc(Cl)cc2)C1 [Venetoclax] | 435 | 470 | 456 | 471 | 465 | 468 | 464 | 472 | 465 | 461 | – |
| Cn1cc(-c2cc3c(N4CCN(c5ncc([C@@](C)(N)c6ccc(F)cc6)cn5)CC4)ncnn3c2)cn1 [Avapritinib] | – | 437 | – | – | – | – | 473 | 455 | 478 | 452 | 433 |
| CNCc1ccccc1-c1csc([C@@H](C)Nc2nc(C)nc3cc(OC)c(OC)cc23)c1 [BAY-293] | – | 446 | – | – | – | – | 488 | 458 | > 500 | 461 | – |
| N#CC1(c2ccc(NC(=O)c3cccnc3NCc3ccncc3)cc2)CCCC1 [Apatinib] | 490 | 470 | 497 | 484 | 476 | – | > 500 | 491 | 498 | 481 | 438 |
| Nc1cc(F)ccc1NC(=O)c1ccc(CNC(=O)/C=C/c2cccnc2)cc1 [Tucidinostat] | – | 443 | – | – | – | – | 458 | 432 | 472 | 474 | – |
| C[C@@H]1C[C@H](C)CN(S(=O)(=O)c2ccc3c(c2)C(=NO)c2cc(S(=O)(=O)N4C[C@H](C)C[C@H](C)C4)ccc2C3=NO)C1 [Tegavivint] | – | – | – | – | – | – | – | 236 | 338 | – | – |
| O=c1[nH]c(=O)n([C@@H]2O[C@H](CO)[C@@H](O)[C@H]2O)cc1F [5-Fluorouridine] | – | 303 | – | – | – | – | 364 | 319 | 447 | 333 | 420 |
| Cn1nccc1Nc1nccc(-c2cc3c(s2)C(C)(C)N(CCN2CCOCC2)C3=O)n1 [Temuterkib] | – | 409 | – | – | – | – | 440 | 443 | > 500 | 484 | > 500 |
| Cc1cnc(CNC(=O)c2c(=O)c3ccc(N4CCCN(C)CC4)nc3n3c2sc2ccccc23)cn1 [Pidnarulex] | – | 402 | – | – | – | – | 489 | 396 | 472 | 453 | 436 |
